Source: US5266562A, “Anti-inflammatory agents” (The United States of America as represented by the …, priority 1987, dated 1993)
Like-named read-outs stand apart in the source and are kept apart here.

B1: Uteroglobin: protein purified from uterine washings of rabbits primed with chorionic gonadotropin; also known as blastokinin (protein, UniProt P02779 22-91, looked up)
Uteroglobin: GICPRFAHVIENLLLGTPSSYETSLKEFEPDDTMKDAGMQMKKVLDSLPQTTRENIMKLTEKIVKSPLCM

Assays:
[1] = system: phorbol myristate acetate induced inflammation on rabbit skin; conditions: for Histopathology: inflammatory cells in phorbol injected skin (in words) / Effect on phorbol induced erythema and induration (in words) / Erythema (mm), Phorbol injected / Induration (mm), Phorbol injected: rabbit skin; for Histopathology: inflammatory cells in phorbol injected skin (in words): 20 μM injected after phorbol, FIG. 3; for Erythema (mm), Phorbol injected / Induration (mm), Phorbol injected: phorbol myristate acetate 10 μM, 0.1 ml, test substance 20 μM, mean ± SEM
Experimental: Animals: Virgin New Zealand rabbits weighting 3-3.5 Kg were used for all experiments. These animals were housed in separate cages and provided with food and water ad libitum. A daily schedule of 12 hours light and 12 hours darkness was maintained throughout the experimental period.
Induction of inflammation and the effect of uteroglobin: The dorsal skin of rabbits was shaved and 1/2 square inch areas demarcated lightly with a felt tip marker pen. […] The demarcated areas were used for identifying the locations where phorbol, carragennin, or other test substances were injected. Using a 25 gauge needle and a tuberculin syringe (1 cc), phorbol myristate acetate solution (10 mM) was injected into all areas, except for two, where no injections were given and two other areas where the solvent of phorbol myristate, dimethyl sulfoxide (DMSO), was injected alone. Various test substances were injected on one side of the vertebral column and the opposite side was used for controls. Thus, in this system a comparison of phorbol induced inflammation with the effects of various test substances could easily be made. These areas were observed daily and the diameter of the erythema and induration for each lesion was measured by the same observer. […] These tissues were used for histopathological analysis.

[2] = system: prostanoid levels (PGE2, PGF2α) in skin lesions; experiment: Prostanoid levels (radioimmunoassay) in tissues injected with phorbol myristate acetate; assay type: in vivo, rabbit; conditions: for Effect on tissue prostanoid levels (PGE2, PGF2α) (in words): rabbit skin lesions injected with phorbol; for Prostaglandin levels PGE2 / Prostaglandin levels PGF2 α: rabbit skin lesions, phorbol 10 μM then test substance 20 μM 0.1 ml after 5 minutes, mean of two experiments; for Prostaglandin levels PGF2 α: ND = Nondetectable
Experimental: These tissues were used for histopathological analysis.
A similar groups of animals were sacrificed 48 hours after the injections were made and the skin lesions were dissected out and homogenized in cold phosphate buffered saline (PBS, pH 7.4). The homogenate was centrifuged at 2500×g for 10 minutes at 4° C. The supernatants were frozen at -70° C. until assayed for prostaglandins.

[3] = equimolar concentrations, concentration not given

Row | Molecule | Histopathology: inflammatory cells in phorbol injected skin (in words) [1] | Effect on phorbol induced erythema and induration (in words) [1, 3] | Erythema and induration induced by the substance itself (in words) ([1]; rabbit, in vivo) | Effect on tissue prostanoid levels (PGE2, PGF2α) (in words) [2] | Prostaglandin levels PGE2 [2] [pg/mg protein] | Prostaglandin levels PGF2 α [2] [pg/mg protein] | Erythema (mm), Phorbol injected [1] [mm] | Induration (mm), Phorbol injected [1] [mm] | Effect on phorbol induced erythema and induration (in words) ([1]; 10 μM, FIG. 4 dose response) | Effect on phorbol induced erythema and induration (in words) ([1]; 20 μM, FIG. 4 dose response)
1 | Myoglobin | did not have any inhibitory effect | did not have any suppressive effect |  |  |  |  |  |  |  | 
2 | CCCCC/C=C\C/C=C\C/C=C\C/C=C\CCCC(=O)O [arachidonic acid] |  |  | induced some erythema and induration |  |  |  |  |  |  | 
3 | C[C@@H]1C[C@H]2[C@@H]3CCC4=CC(=O)C=C[C@]4(C)[C@@]3(F)[C@@H](O)C[C@]2(C)[C@@]1(O)C(=O)CO [Dexamethasone] | reduced the density of these inflammatory cells | dramatically reduced both erythema as well as induration |  | dramatically reduced these prostanoid levels | 106 | 88 | 10.5 ± 1.2 | 8.1 ± 2.0 |  | 
4 | B1 |  | dramatically reduced both erythema as well as induration |  | dramatically reduced these prostanoid levels | 94 | 58 | 6.4 ± 0.5 | 5.1 ± 0.8 | Significant inhibitory effect | most dramatic effect
